Reference: US20250019385A1, “SPIROCYCLIC ANNULATED 2-AMINO-3-CYANO THIOPHENES AND DERIVATIVES FOR THE TREATMENT OF CANCER” (Boehringer Ingelheim International GmbH, priority 2023, published 2025)
pIC50: −log10 of the molar value.

Legend:
[1] = target: KRAS (G12V)::CRAF protein::protein interaction (Homo sapiens (Human), UniProt P01116, C118S/G12V); experiment: KRAS TR-FRET assay (KRAS G12V::CRAF, GTP); type: binding
Protocol: (§1) This assay measures the inhibitory effect of compounds on KRAS::CRAF protein::protein interactions in the presence of GTP using Time-resolved fluorescence energy transfer (TR-FRET).
(§2) The following wildtype or mutant alleles of KRAS and CRAF protein have been used at the given concentrations:
KRAS (G12V) 1-169, C118S, N-terminal 6His-tag, C-terminal avi-tag (Boehringer Ingelheim in house protein prep); final assay concentration 15 nM.
(§3) CRAF Ras binding domain, GST-tag, TEV cleavage site (Boehringer Ingelheim in house protein prep); final assay concentration 15 nM.
(§4) Test compounds dissolved in DMSO were dispensed onto assay plates (Proxiplate 384 PLUS, white, PerkinElmer; 6008289) using an Access Labcyte Workstation with the Labcyte Echo 55x. For the chosen highest assay concentration of 100 μM, 150 nl of compound solution was transferred from a 10 mM DMSO compound stock solution. A series of eleven fivefold dilutions per compound was transferred to the assay plate, compound dilutions were tested in duplicates. DMSO was added as backfill to a total volume of 150 nl.
(§5) The assay runs on a fully automated robotic system. To 150 nl of compound dilution 15 μl of a mix including the respective KRAS allele, CRAF (e.g. KRAS (G12D)::CRAF; final assay concentrations see above), GTP nucleotide (Sigma G8877; final assay concentration 10 μM), Lance Eu—W1024 labeled Streptavidin (PerkinElmer, Cat No AD0063; final assay concentration 1.5 nM) and Anti-GST surelight APC (PerkinElmer, Cat No AD0059G; final assay concentration 30 nM) in assay buffer (1×PBS, 0.1% BSA, 0.05% Tween 20) are added into columns 1-23 and 15 μL of the solution without the respective KRAS allele were added to row 24.
(§6) Plates are kept at room temperature in a darkened incubator. After 60 minutes incubation time the signal is measured in a PerkinElmer Envision HTS Multilabel Reader using the TR-FRET LANCE Ultra specs from PerkinElmer.
(§7) Each plate contains 16 wells of a negative control (diluted DMSO instead of test compound; w respective KRAS allele; column 23) and 16 wells of a positive control (diluted DMSO instead of test compound; w/o respective KRAS allele; column 24).
(§8) IC50 values were calculated and analyzed with Boehringer Ingelheim's MEGALAB 50 application using a 4 parametric logistic model.
(§9) Tables of example compounds disclosed herein contain IC50 values determined using the above assays (see Table 44).

[2] = target: KRAS (WT)::CRAF protein::protein interaction (Homo sapiens (Human), UniProt P01116); experiment: KRAS TR-FRET assay (KRAS WT::CRAF, GTP); type: binding
KRAS (WT)::CRAF protein::protein interaction, sequence (P01116 other isoform, or with tags, fused parts or gaps): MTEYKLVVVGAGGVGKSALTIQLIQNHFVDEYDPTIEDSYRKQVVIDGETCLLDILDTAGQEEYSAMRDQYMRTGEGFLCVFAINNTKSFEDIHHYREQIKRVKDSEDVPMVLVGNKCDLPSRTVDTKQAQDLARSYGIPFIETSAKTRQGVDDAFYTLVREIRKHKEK
Protocol: as §1, §2
KRAS (WT) 1-169, N-terminal 6His-tag, C-terminal avi-tag (Boehringer Ingelheim in house protein prep); final assay concentration 15 nM.
as §3, §4, §5, §6, §7, §8, §9

CYP3A4 = CYP3A4 (Homo sapiens (Human), UniProt P08684); experiment: Mechanism based inhibition of CYP3A4 assay (MBI 3A4); type: in vitro ADME; settings: human liver microsomes, 25 uM compound; hydroxy-midazolam formation after 30 min preincubation relative to 0 min
CYP3A4, sequence (P08684 whole entry): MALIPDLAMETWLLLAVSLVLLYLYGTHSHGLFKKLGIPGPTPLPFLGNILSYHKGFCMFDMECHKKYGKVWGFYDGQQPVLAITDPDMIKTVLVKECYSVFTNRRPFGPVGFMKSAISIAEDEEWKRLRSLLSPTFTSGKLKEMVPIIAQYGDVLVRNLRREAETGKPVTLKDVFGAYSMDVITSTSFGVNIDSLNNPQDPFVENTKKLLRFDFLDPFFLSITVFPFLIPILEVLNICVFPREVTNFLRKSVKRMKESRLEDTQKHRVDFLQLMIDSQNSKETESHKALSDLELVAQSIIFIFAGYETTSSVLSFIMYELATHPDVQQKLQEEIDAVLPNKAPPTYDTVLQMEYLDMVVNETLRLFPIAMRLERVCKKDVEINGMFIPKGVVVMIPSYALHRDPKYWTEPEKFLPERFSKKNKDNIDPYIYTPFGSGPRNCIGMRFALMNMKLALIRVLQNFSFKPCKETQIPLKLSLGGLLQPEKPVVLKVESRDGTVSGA
Protocol: The time dependent inhibition towards CYP3A4 is assayed in human liver microsomes (0.02 mg/mL) with midazolam (15 μM) as a substrate. The test compounds and water control (wells w/o test compound) are preincubated in presence of NADPH (1 mM) with human liver microsomes (0.2 mg/mL) at a concentration of 25 uM for 0 min and 30 min. After preincubation, the incubate is diluted 1:10 and the substrate midazolam is added for the main incubation (15 min). The main incubation is quenched with acetonitrile and the formation of hydroxy-midazolam is quantified via LC/MS-MS. The formation of hydroxy-midazolam from the 30 min preincubation relative to the formation from the 0 min preincubation is used as a readout. Values of less than 100% mean that the substrate midazolam is metabolized to a lower extent upon 30 min preincubation compared to 0 min preincubation. In general low effects upon 30 min preincubation are desired (corresponding to values close to 100%/not different to the values determined with water control).

KRAS (G12V)::CRAF protein::protein interaction, sequence (P01116 other isoform, or with tags, fused parts or gaps G12V/C118S): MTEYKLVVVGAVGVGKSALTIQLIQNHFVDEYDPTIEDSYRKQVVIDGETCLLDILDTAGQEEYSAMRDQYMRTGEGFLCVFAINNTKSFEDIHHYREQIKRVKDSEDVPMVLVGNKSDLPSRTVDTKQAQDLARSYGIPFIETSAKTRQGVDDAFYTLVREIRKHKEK

| pIC50 [1] | pIC50 [2] | MBI 3A4 (CYP3A4) [%] | Compound |
| --- | --- | --- | --- |
| 7.62 | 7.28 |  | C[C@H](Oc1nc(-c2noc3c2CCC[C@@]32CCCc3sc(N)c(C#N)c32)nc2c1n(C)c(=O)n2[C@@H]1CCOC1)[C@@H]1CCCN1C [II-2] |
| 6.50 | 6.47 |  | C[C@H](Oc1nc(-c2onc3c2CCC[C@@]32CCCc3sc(N)c(C#N)c32)nc2c1n(C)c(=O)n2[C@H]1CCCOC1)[C@@H]1CCCN1C [I-11] |
| 7.16 | 7.00 |  | CO[C@@H]1C[C@@H]([C@H](C)Oc2nc(-c3onc4c3CCC[C@@]43CCCc4sc(N)c(C#N)c43)nc3c2n(C)c(=O)n3[C@@H]2CCOC2)N(C)C1 [I-3] |
| 6.70 | 6.21 | 83 | C[C@H](Oc1nc(-c2onc3c2CCC[C@@]32CCCc3sc(N)c(C#N)c32)nc2c1n(C)c(=O)n2[C@H]1CCOC1)[C@@H]1CCCN1C [I-9] |
| 6.35 | 5.94 |  | COCCn1c(=O)n(C)c2c(O[C@@H](C)[C@@H]3CCCN3C)nc(-c3onc4c3CCC[C@@]43CCCc4sc(N)c(C#N)c43)nc21 [I-7] |
| 7.96 | 7.62 | 85 | C[C@H](Oc1nc(-c2noc3c2CCC[C@@]32CCCc3sc(N)c(C#N)c32)nc2c1COC[C@]21CCOC1)[C@@H]1CCCN1C [II-8] |
| 6.94 | 6.56 |  | Cc1nn([C@@H]2CCOC2)c2nc(-c3onc4c3CCC[C@@]43CCCc4sc(N)c(C#N)c43)nc(O[C@@H](C)[C@@H]3CCCN3C)c12 [I-42] |
| 7.77 | 7.40 |  | C[C@H](Oc1nc(-c2noc3c2CCC[C@@]32CCCc3sc(N)c(C#N)c32)nc2c1CNC[C@]21CCOC1)[C@@H]1CCCN1C [II-15] |
| 7.21 | 7.27 |  | CO[C@H]1CCN(C)[C@@H]1[C@H](C)Oc1nc(-c2noc3c2CCC[C@@]32CCCc3sc(N)c(C#N)c32)nc2c1n(C)c(=O)n2[C@@H]1CCOC1 [II-1] |
| 6.74 | 6.37 |  | CO[C@H]1C[C@@H]([C@H](C)Oc2nc(-c3onc4c3CCC[C@@]43CCCc4sc(N)c(C#N)c43)nc3c2n(C)c(=O)n3[C@@H]2CCOC2)N(C)C1 [I-2] |
| 7.21 | 7.28 |  | Cc1nc2c(O[C@@H](C)[C@@H]3CCCN3C)nc(-c3onc4c3CCC[C@@]43CCCc4sc(N)c(C#N)c43)nc2n1[C@@H]1CCOC1 [I-39] |
| 6.62 | 6.27 |  | C[C@H](Oc1nc(-c2onc3c2CCC[C@@]32CCCc3sc(N)c(C#N)c32)nc2c1n(C)c(=O)n2[C@@H]1CCOC1)[C@@H]1C[C@@H]2C[C@@H]2N1C [I-28] |
| 6.97 | 6.80 |  | COCCn1c(=O)n([C@@H]2CCOC2)c2nc(-c3onc4c3CCC[C@@]43CCCc4sc(N)c(C#N)c43)nc(O[C@@H](C)[C@@H]3CCCN3C)c21 [I-1] |
| 7.22 | 6.88 |  | C[C@H](Oc1nc(-c2onc3c2CCC[C@@]32CCCc3sc(N)c(C#N)c32)nc2c1n(C)c(=O)n2[C@@H]1CCOC1)[C@@H]1C[C@@H](F)CN1C [I-22] |
| 7.74 | 7.43 | 79 | C[C@H](Oc1nc(-c2onc3c2CCC[C@@]32CCCc3sc(N)c(C#N)c32)nc2c1n(C)c(=O)n2[C@@]12COC[C@@H]1C2)[C@@H]1CCCN1C [I-29] |
| 6.99 | 6.82 |  | CCn1c(=O)n([C@@H]2CCCOC2)c2nc(-c3onc4c3CCC[C@@]43CCCc4sc(N)c(C#N)c43)nc(O[C@@H](C)[C@@H]3CCCN3C)c21 [I-30] |
| 6.82 | 6.75 |  | C[C@H](Oc1nc(-c2onc3c2CCC[C@@]32CCCc3sc(N)c(C#N)c32)nc2c1n(C)c(=O)n2C12COC(C1)C2)[C@@H]1CCCN1C [I-15] |
| 7.15 | 6.86 |  | C[C@H](Oc1nc(-c2onc3c2CCC[C@@]32CCCc3sc(N)c(C#N)c32)nc2c1ncn2[C@@H]1CCOC1)[C@@H]1CCCN1C [I-38] |

| pIC50 [1] | pIC50 [2] | MBI 3A4 (CYP3A4) [%] | Compound |
| --- | --- | --- | --- |
| 6.83 | 6.49 |  | C[C@H](Oc1nc(-c2onc3c2CCC[C@@]32CCCc3sc(N)c(C#N)c32)nc2c1cnn2[C@@H]1CCOC1)[C@@H]1CCCN1C [I-43] |
| 7.60 | 7.23 |  | CO[C@H]1CCN(C)[C@@H]1[C@H](C)Oc1nc(-c2onc3c2CCC[C@@]32CCCc3sc(N)c(C#N)c32)nc2c1n(C)c(=O)n2[C@@H]1CCOC1 [I-23] |
| 6.92 | 6.63 |  | Cc1cc2c(O[C@@H](C)[C@@H]3CCCN3C)nc(-c3onc4c3CCC[C@@]43CCCc4sc(N)c(C#N)c43)nc2n1[C@@H]1CCOC1 [I-40] |
| 6.85 | 6.24 |  | C[C@H](Oc1nc(-c2noc3c2CCC[C@@]32CCCc3sc(N)c(C#N)c32)nc2c1COC[C@@]21CCOC1)[C@@H]1CCCN1C [II-9a] |
| 7.30 | 7.09 |  | C[C@H](Oc1nc(-c2noc3c2CCC[C@@]32CCCc3sc(N)c(C#N)c32)nc2c1cnn2[C@@H]1CCOC1)[C@@H]1CCCN1C [II-4] |
| 7.43 | 7.02 |  | CCn1c(=O)n([C@@H]2CCOC2)c2nc(-c3onc4c3CCC[C@@]43CCCc4sc(N)c(C#N)c43)nc(O[C@@H](C)[C@@H]3CCCN3C)c21 [I-21] |
| 7.68 | 7.30 | 92 | C[C@H](Oc1nc(-c2onc3c2CCC[C@@]32CCCc3sc(N)c(C#N)c32)nc2c1n(C)c(=O)n2[C@@H]1CCOC1)[C@@H]1CCCN1C [I-20] |
| 7.59 | 7.28 | 60 | C[C@H](Oc1nc(-c2onc3c2CCC[C@@]32CCCc3sc(N)c(C#N)c32)nc2c1n(C)c(=O)n2[C@@H]1CCOC1)C12CCCN1CCC2 [I-25] |
| 7.46 | 7.10 | 101 | C[C@H](Oc1nc(-c2noc3c2CCC[C@@]32CCCc3sc(N)c(C#N)c32)nc2c1CCO[C@]21CCOC1)[C@@H]1CCCN1C [II-9b] |
| 6.96 | 6.46 |  | C[C@H](Oc1nc(-c2onc3c2CCC[C@@]32CCCc3sc(N)c(C#N)c32)nc2c1n(C)c(=O)n2C1CCOCC1)[C@@H]1CCCN1C [I-10] |
| 7.92 | 7.48 | 83 | C[C@H](Oc1nc(-c2onc3c2CCC[C@@]32CCCc3sc(N)c(C#N)c32)nc2c1COC[C@]21CCOC1)[C@@H]1CCCN1C [I-54] |
| 7.66 | 7.43 | 75 | C[C@H](Oc1nc(-c2onc3c2CCC[C@@]32CCCc3sc(N)c(C#N)c32)nc2c1n(C)c(=O)n2[C@@H]1CCCOC1)[C@@H]1CCCN1C [I-12] |
| 6.72 | 6.22 |  | CC(C)n1c(=O)n([C@@H]2CCOC2)c2nc(-c3onc4c3CCC[C@@]43CCCc4sc(N)c(C#N)c43)nc(O[C@@H](C)[C@@H]3CCCN3C)c21 [I-32] |
| 6.82 | 6.13 |  | C[C@H](Oc1nc(-c2onc3c2CCC[C@@]32CCCc3sc(N)c(C#N)c32)nc2c1n(C)c(=O)n2C1COC1)[C@@H]1CCCN1C [I-24] |
| 6.71 | 6.34 |  | C[C@H](Oc1nc(-c2onc3c2CCC[C@@]32CCCc3sc(N)c(C#N)c32)nc2c1n(C)c(=O)n2[C@@H]1CCOC1)[C@@H]1C[C@H](F)CN1C [I-27] |
| 7.42 | 7.25 |  | C[C@H](Oc1nc(-c2noc3c2CCC[C@@]32CCCc3sc(N)c(C#N)c32)nc2c1CCCO[C@]21CCOC1)[C@@H]1CCCN1C [II-10] |
| 6.39 | 5.74 |  | Cc1cn([C@@H]2CCOC2)c2nc(-c3onc4c3CCC[C@@]43CCCc4sc(N)c(C#N)c43)nc(O[C@@H](C)[C@@H]3CCCN3C)c12 [I-41] |
| 6.58 | 6.18 |  | C[C@H](Oc1nc(-c2onc3c2CCC[C@@]32CCCc3sc(N)c(C#N)c32)nc2c1n(C)c(=O)n2[C@@H]1CCOC1)[C@@H]1[C@@H](F)CCN1C [I-5] |
